Data published in patent publication US8324188B2, “Combinations of ET-18-O-CH3and anti-cancer agents for the treatment of cancer” (priority 2006, dated 2012).
Values joined by “and” are separate entries in the source; they are usually repeats but may differ in a detail not shown here. Equal entries are not always repeated.

Assays:
U87MG = test: WST-1 proliferation assay, U87MG; type: cell-based, human; details: Homo sapiens, U-87 MG
Procedure: (§1) AP-121 was prepared as 5 mM stock solution in distilled sterile water, Temozolomide (TMZ) (Haorui Pharma-Chem, Inc., Edison, N.J.) was prepared as 100 mM in sterile filtrated DMSO; Adriamycin (ADR) (Sigma) was prepared as 1 mM in distilled sterile water; Camptothecin (CTP) (Sigma) was prepared as 10 mM solution in 0.1 N NaOH; Tarceva (Proteinkinase, Germany) was prepared as 5 mM solution in sterile DMSO. All compound stocks were kept at −20° C. 2000 cells were plated in each well of 96-well flat bottom plates, and incubated overnight at 37 °C in 5% CO2. The growth of plated cells was measured by adding […] of WST-1 reagent (Roche Applied Sciences, Germany) to 3 control wells and measuring the absorbance at 650 nm and at 450 nm, respectively, with a SpectraMax250 plate reader. […] After this incubation, VVST-1 reagent was added to the wells and OD650-OD450 values were calculated as before. six wells were assayed for each conditions and standard deviation was determined: all experiments were performed at least three times independently. […] Six different concentrations of each drug were used in combinations index measurements and compared to +/− cells, and compared to controls without compound.

A172 = test: WST-1 proliferation assay, A172; type: cell-based, human; details: Homo sapiens, A 172
Procedure: as §1

U118MG = test: WST-1 proliferation assay, U118MG; type: cell-based, human; details: Homo sapiens, U-118-MG
Procedure: as §1, with “compound. Each combination was repeated 6 times at 2 different time points (24 and 96 hours), each of the above experiments was repeated 3 times to obtain valid results.” for “compound.”

LN-18 = test: WST-1 proliferation assay, LN-18; type: cell-based; details: Homo sapiens
Procedure: (§2) 2000 cells were plated in each well of 96-well flat bottom plates, and incubated overnight at 37 °C in 5% CO2. The growth of plated cells was measured by adding […] of WST-1 reagent (Roche Applied Sciences, Germany) to 3 control wells and measuring the absorbance at 650 nm and at 450 nm, respectively, with a SpectraMax250 plate reader. […] After this incubation, VVST-1 reagent was added to the wells and OD650-OD450 values were calculated as before. six wells were assayed for each conditions and standard deviation was determined: all experiments were performed at least three times independently. […] Six different concentrations of each drug were used in combinations index measurements and compared to +/− cells, and compared to controls without compound.

LN-229 = test: WST-1 proliferation assay, LN-229; type: cell-based; details: Homo sapiens
Procedure: (§3) 2000 cells were plated in each well of 96-well flat bottom plates, and incubated overnight at 37 °C in 5% CO2. The growth of plated cells was measured by adding […] of WST-1 reagent (Roche Applied Sciences, Germany) to 3 control wells and measuring the absorbance at 650 nm and at 450 nm, respectively, with a SpectraMax250 plate reader. If the OD650-OD450 values were above 0.5, the remainder of the plate was used for incubation with AP-121, other pharmacological agents or solvent control for 96 hours.
(§4) After this incubation, VVST-1 reagent was added to the wells and OD650-OD450 values were calculated as before. six wells were assayed for each conditions and standard deviation was determined: all experiments were performed at least three times independently. After elucidation of individual IC50 values for each compound, the simultaneous combination treatment of AP-121 and the chemotherapeutic agent at their IC50 ratio was performed; combination index (CI) was determined by Calcusyn software package (Biosoft, Ferguson, Mo.). Data were evaluated by calculating the means of the combination index (CI), where a CI of <0.3 indicates a strong synergistic effect, 0.3<CI<0.7 a synergistic effect, 0.7<CI<0.9 moderate synergy, 0.9<CI<1 additive effect and CI>1 antagonistic effect, respectively.
For the AP-121 cell proliferation drug combination measurements, the ED50 was determined for each drug. Six different concentrations of each drug were used in combinations index measurements and compared to +/− cells, and compared to controls without compound. Each combination was repeated 6 times at 2 different time points (24 and 96 hours), each of the above experiments was repeated 3 times to obtain valid results.

T98G = test: WST-1 proliferation assay, T98G; type: cell-based; details: Homo sapiens
Procedure: as §1

A431 = details: mean ± SD from three independent experiments, read-out: ED50 values for induction of apoptosis; cited from earlier work
HeLa = details: mean ± SD from three independent experiments, read-out: ED50 values for induction of apoptosis; cited from earlier work
NCI-H460 (FAS positive) = test: WST-1 proliferation assay, NCI-H460; type: cell-based, human; details: NCI-H460; single agent, per experiment line
Procedure: as §2, with “DDP and GMZ” for “Six different concentrations of each drug”, “both purchased from Sigma-aldrich Corp., St. Louis, Mo., USA. The following cell lines were used: A549 (FAS negative), NCI-H460 (FAS positive),” for “used in combinations index measurements”, “HCC827 (FAS positive), all obtained from the ATTC, Rockville, Md., USA.” for “compared to +/− cells, and compared to controls without compound.”

HCC827 (FAS positive) = test: WST-1 proliferation assay, HCC827; type: cell-based, human; details: single agent, per experiment line
Procedure: as §2, with “DDP and GMZ” for “Six different concentrations of each drug”, “both purchased from Sigma-aldrich Corp., St. Louis, Mo., USA. The following cell lines were used: A549 (FAS negative), NCI-H460 (FAS positive),” for “used in combinations index measurements”, “HCC827 (FAS positive), all obtained from the ATTC, Rockville, Md., USA.” for “compared to +/− cells, and compared to controls without compound.”

[1] = test system: brain tumor cell lines U87MG, A172, LN-18, LN-229, U118MG, and T98G; test: WST-1 proliferation assay, summaries over the brain tumor cell line panel; type: cell-based, human; details: together with AP-121; all three cell lines (U87MG, A172, U118MG)
Procedure: As a biological test panel, we selected the brain tumor cell lines U87MG, A172, LN-18, LN-229, U118MG, and T98G that have different levels of mutations in p53 and PTEN as well as FAS receptor expression:
as §3, with “If the OD650-OD450 values were above 0.5, the remainder of the plate was used for incubation with AP-121, other pharmacological agents or solvent control for 96 hours.” left out
as §4, with “respectively. […]” for “respectively.”

[2] = test system: LNCaP androgen-sensitive human prostate adenocarcinoma cells; test: Apo-ONE Homogenous Caspase-3/7 Assay in LNCaP cells; type: cell-based; details: AD + R1881, no CHEM
Procedure: FIG. 1. Depicts the in vitro effects of 1-O-octadecyl-2-O-methyl-glycero-3-phosphocholine (final concentration 10 μM), (ionizing) radiation (absorbed dose of 5 Gray units; indicated as “RT”), and a combination thereof on programmed cell death (apoptosis) and the survival rate of LNCaP androgen-sensitive human prostate adenocarcinoma cells. Apoptosis was determined using the Apo-ONE™ Homogenous Caspase-317 Assay, Promega, Inc., Madison, Wis., USA according to the manufacturers instructions. The percentage of living cancer cells was estimated by means of trypan blue dye exclusion as described (Freshney, R. I. (1994) Culture of Animal Cells: A Manual of Basic Technique. 3rd Ed. Wiley-Liss. New York. USA). The cells were exposed to radiation six hours after (FIG. 1A), concomitantly with (FIG. 1B), or six hours before administration of 1-O-octadecyl-2-O-methyl-glycero-3-phospho-choline (FIG. 1C). The caspase assay was performed 12 hours after exposure to radiation. The respective data shown represent the average of two independent experiments.
First, the in vitro effects of 1-O-octadecyl-2-O-methyl-glycero-3-phosphocholine, (ionizing) radiation, and a combination thereof on programmed cell death (apoptosis) and the survival rate of LNCaP androgen-sensitive human prostate adenocarcinoma cells were measured. The LNCaP cell line was established from a metastatic lesion of the adenocarcinoma. The cells were treated with a final concentration of 10 μM 1-O-octadecyl-2-O-methyl-glycero-3-phosphocholine and (ionizing) radiation corresponding to an absorbed dose of 5 Gray units.
Apoptosis was determined using the Apo-ONE™ Homogenous Caspase-3/7 Assay, Promega, Inc., Madison, VV1, USA according to the manufacturers instructions. The percentage of living tumor cells was estimated by means of trypan blue dye exclusion as described (Freshney, R. I. (1994) Culture of Animal Cells: A Manual of Basic Technique. 3rd Ed. Wiley-Liss. New York. USA)
The cells were exposed to radiation six hours after (FIG. 1A), concomitantly with (FIG. 1B), or six hours before administration of 1-O-octadecyl-2-O-methyl-glycero-3-phospho-choline (FIG. 1C). The caspase assay was performed 12 hours after exposure to radiation. The respective data shown represent the average of two independent experiments.
(§5) In a further approach, 10 μM 1-O-octadecyl-2-O-methyl-glycero-3-phosphocholine (final concentration; “CHEM”) and (ionizing) radiation (5 Gray units; “RT”) were administered simultaneously to the LNCaP cells but the subsequent incubation period was extended to 24 hours. Apoptosis was measured using the Apo-ONE™ Homogenous Caspase-3/7 Assay as described above and expressed as relative fluorescence units (RFLU). The percentage of apoptotic cells was determined by flow cytometric analysis of annexin V-PE positive-stained and 7-AAD (7-Amino ActinomycinD) negative-stained cells (both purchased from BD Biosciences, San Jose, Calif., USA) according to established standard protocols. The data represent means±SEM from three independent experiments.
(§6) Apoptosis was measured using the Apo-ONE™ Homogenous Caspase-3/7 Assay as described above and expressed as relative fluorescence units (RFLU). The percentage of apoptotic cells was determined via annexin V-PE/7-AAD staining as described above. The caspase-317 assay and annexin staining were performed 22 hours after CHEM treatment.

LNCaP cells = test: flow cytometric analysis of annexin V-PE positive / 7-AAD negative LNCaP cells; type: cell-based, human; details: AD + R1881, no CHEM
Procedure: as §5
Next, the interaction of 1-O-octadecyl-2-O-methyl-glycero-3-phosphocholine administration (“CHEM”) and androgen deprivation (“AD”) was investigated. LNCaP cells were deprived of androgen for two days by charcoal absorption of serum according to established procedures well known in the art. CHEM was added in a final concentration of 5 μM and 10 μM, respectively.
as §6

CC[C@@]1(O)C(=O)OCc2c1cc1n(c2=O)Cc2cc3ccccc3nc2-1 [CPT, Camptothecin]
IC50 (U87MG): 0.04 µM | IC50 (A172): 0.02 µM | IC50 (U118MG): 0.004 µM | IC50 (LN-18): 0.04 µM | IC50 (LN-229): 0.02 µM | IC50 (T98G): 0.02 µM

CCCCCCCCCCCCCCCCCCOP(=O)([O-])OC1CC[N+](C)(C)CC1 [Perifosine]
EC50 (A431): 23.2 ± 2.7 µM | EC50 (HeLa): 9.27 ± 1.8 µM

[NH2][Pt]([NH2])([Cl])[Cl] [DDP, cisplatinum, reference compound]
IC50 (NCI-H460 (FAS positive)): 1.3 µM | IC50 (HCC827 (FAS positive)): 3.4 µM and 3.5 µM

Nc1ccn([C@@H]2O[C@H](CO)[C@@H](O)C2(F)F)c(=O)n1 [GMZ, gemicitabin, reference compound]
IC50 (NCI-H460 (FAS positive)): 0.003 µM and 0.006 µM

C#Cc1cccc(Nc2ncnc3cc(OCCOC)c(OCCOC)cc23)c1 [Tarceva]
IC50 (U87MG): 5.9 µM | IC50 (A172): 18.8 µM | IC50 (U118MG): 18.8 µM | IC50 (LN-18): 20 µM | IC50 (LN-229): 3.9 µM | IC50 (T98G): 14.4 µM

CCCCCCCCCCCCCCCCOP(=O)([O-])OCC[N+](C)(C)C [HePC]
EC50 (A431): 17.3 ± 3 µM | EC50 (HeLa): 8.17 ± 0.4 µM

Cn1nnc2c(C(N)=O)ncn2c1=O [TMZ, Temozolomide]
IC50 (U87MG): 425 µM | IC50 (A172): 38.3 µM | IC50 (U118MG): 382 µM | IC50 (LN-18): 554 µM | IC50 (LN-229): 278 µM | IC50 (T98G): 608 µM | effect of combination [1]: strong synergistic effect (a CI of <0.3 indicates a strong synergistic effect)

COc1cccc2c1C(=O)c1c(O)c3c(c(O)c1C2=O)C[C@@](O)(C(=O)CO)C[C@@H]3O[C@H]1C[C@H](N)[C@H](O)[C@H](C)O1 [ADR, Adriamycin]
IC50 (U87MG): 0.11 µM | IC50 (A172): 0.07 µM | IC50 (U118MG): 0.12 µM | IC50 (LN-18): 0.09 µM | IC50 (LN-229): 0.13 µM | IC50 (T98G): 0.17 µM

C[C@]1(O)CC[C@H]2[C@@H]3CCC4=CC(=O)CCC4=C3C=C[C@@]21C [R1881, reference compound]
Caspase-3/7 activity (RFLU) [2]: 130 RFLU | % Annexin V-PE pos. cells (LNCaP cells): 7.0%
